Laboratory results taken from patent US6228843A (priority 2000, dated 2001).

Columns and labels:
[1] = system: adult bovine pulmonary artery smooth muscle cells; format: cell-based
Protocol: (§1) Hypoxic growth was induced by priming with the PKC activator, 10 nM PMA. Proliferative response was measured by ^3 H-thymidine incorporation and cell counts. Isozyme expression was measured by Western blot.

PKC-α and β = assay: PKC activity in PA SMC preparation; format: cell-based, bovine
PKC-α [2] = target: T1, PKC-α (Bos taurus, UniProt P04409); assay: PKC isozyme expression by Western blot: PKC-α degradation; format: cell-based, bovine
T1 construct: proteolytic degradation of PKC-α in smooth muscle cells; endogenous in cells; host or cells: adult bovine pulmonary artery smooth muscle cells (PA SMC)
Protocol: as §1

PKC βI = target: T2, PKC βI (Bos taurus, UniProt P05126); assay: PKC isozyme expression by Western blot: βI; format: cell-based, bovine; conditions: adult PA SMC
T2 construct: isozyme expressed in these adult cells (βI); endogenous in cells; host or cells: adult bovine pulmonary artery smooth muscle cells (PA SMC)
T2 sequence (P05126 whole entry): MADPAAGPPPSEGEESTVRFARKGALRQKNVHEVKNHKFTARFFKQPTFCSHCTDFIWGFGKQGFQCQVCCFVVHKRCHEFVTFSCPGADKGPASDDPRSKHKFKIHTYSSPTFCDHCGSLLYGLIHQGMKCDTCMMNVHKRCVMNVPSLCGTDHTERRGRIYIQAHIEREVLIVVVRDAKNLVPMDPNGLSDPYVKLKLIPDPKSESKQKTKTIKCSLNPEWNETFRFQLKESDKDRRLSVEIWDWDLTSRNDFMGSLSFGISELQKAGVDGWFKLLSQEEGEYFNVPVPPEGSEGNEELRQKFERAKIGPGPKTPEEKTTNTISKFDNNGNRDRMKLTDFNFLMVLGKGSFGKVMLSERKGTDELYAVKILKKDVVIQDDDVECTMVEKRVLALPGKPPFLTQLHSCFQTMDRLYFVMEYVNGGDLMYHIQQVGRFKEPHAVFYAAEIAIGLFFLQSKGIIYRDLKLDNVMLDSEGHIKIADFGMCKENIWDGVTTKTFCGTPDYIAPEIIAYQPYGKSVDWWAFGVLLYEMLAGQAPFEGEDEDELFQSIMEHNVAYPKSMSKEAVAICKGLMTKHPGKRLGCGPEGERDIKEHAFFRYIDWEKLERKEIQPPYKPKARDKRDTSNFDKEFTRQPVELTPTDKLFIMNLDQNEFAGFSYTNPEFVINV
Protocol: […]. Hypoxic growth was induced by priming with the PKC activator, 10 nM PMA. Proliferative response was measured by ^3 H-thymidine incorporation and cell counts. Isozyme expression was measured by Western blot. […]. […] […].

PKC-α [3] = target: T3, PKC-α (Mus musculus, UniProt P20444); assay: PKC-α protein levels in whole lung homogenates of treated mice; format: in vivo; conditions: chronic treatment of mice
T3 construct: PKC-α protein levels in whole lung homogenates; from tissue; host or cells: whole lung homogenates of treated mice

SMILES	hypoxia-induced PA SMC proliferation (FIG. 4) [1]	activity of PKC-α and β (FIG. 4) (PKC-α and β)	threshold concentration to induce PKC-α degradation (PKC-α [2]) [nM]	time at which PKC-α degradation is complete (PKC-α [2]; 100 nM) [h]	time at which PKC-α degradation is first detectable (PKC-α [2]; 100 nM) [h]	dose dependence of PKC-α degradation and hypoxic growth (FIG. 6) (PKC-α [2]; bovine PA SMC)	time dependence of PKC-α degradation (FIG. 5) (PKC-α [2]; bovine PA SMC)	degradation of Ca2+-dependent isozyme βI (PKC βI)	PKC-α protein levels in whole lung homogenates (FIG. 8) (PKC-α [3])
Cn1c2ccccc2c2c3c(c4c5ccccc5n(CCC#N)c4c21)CNC3=O [Go6976]	inhibits hypoxia-induced PA SMC proliferation	inhibits activity of PKC-α and β	–	–	–	–	–	–	–
CCCC=CC=CC(=O)OC1C(=CC(=O)OC)CC2CC(C(C)O)OC(=O)CC(O)CC3CC(OC(C)=O)C(C)(C)C(O)(CC4CC(=CC(=O)OC)CC(C=CC(C)(C)C1(O)O2)O4)O3 (stereo not drawn) [bryostatin-1]	–	–	10	≤ 24	≤ 1	dose-dependent effect	time dependent	No degradation	decreases PKC-α protein levels
